# Data from ChEMBL document CHEMBL3885881, “DrugMatrix”.
# Species: Rattus norvegicus
# Assay: DrugMatrix - Regimen: Daily Repeat
# Format: toxicity, organism-based, Sprague-Dawley
# Parameters: regimen Daily Repeat, gender Male, age 6-8 weeks
# Details: in vivo, po, route oral GAVAGE, vehicle 100 % WATER; for ABSOLUTE BASOPHIL / ABSOLUTE EOSINOPHIL / ABSOLUTE LYMPHOCYTE / ABSOLUTE MONOCYTE / ABSOLUTE SEGMENTED NEUTROPHIL / BASOPHIL / EOSINOPHIL / ERYTHROCYTE COUNT / HEMATOCRIT / HEMOGLOBIN / LEUKOCYTE COUNT / LYMPHOCYTE / MEAN CORPUSCULAR HEMOGLOBIN / MEAN CORPUSCULAR HEMOGLOBIN CONCENTRATION / MONOCYTE / NEUTROPHIL / NUCLEATED RED BLOOD CELLS / PLATELET COUNT: tissue Blood; for ALANINE AMINOTRANSFERASE / ALBUMIN / ALKALINE PHOSPHATASE / ASPARTATE AMINOTRANSFERASE / BLOOD UREA NITROGEN / CARBON DIOXIDE / CHLORIDE / CHOLESTEROL / CREATINE PHOSPHOKINASE / CREATININE / GLUCOSE / LACTATE DEHYDROGENASE / LIPASE / PHOSPHORUS / POTASSIUM / SODIUM / TOTAL BILIRUBIN / TOTAL PROTEIN / URIC ACID: tissue Plasma
# [1] = 0 mg/kg, 72 h, dose level Control, time 3 day
# [2] = 0 mg/kg, 120 h, dose level Control, time 5 day
# [3] = 50 mg/kg, 72 h, dose level Low, time 3 day
smiles,measurement,setting,value
C[C@H](CS)C(=O)N1CCC[C@H]1C(=O)O [CAPTOPRIL],ABSOLUTE BASOPHIL,[1],0 CELLS/uL
same,ABSOLUTE EOSINOPHIL,[1],0 CELLS/uL
same,ABSOLUTE LYMPHOCYTE,[1],10386.33 CELLS/uL
same,ABSOLUTE MONOCYTE,[1],88.5 CELLS/uL
same,ABSOLUTE SEGMENTED NEUTROPHIL,[1],1008.5 CELLS/uL
same,BASOPHIL,[1],0%
same,EOSINOPHIL,[1],0%
same,ERYTHROCYTE COUNT,[1],5.16 x10E6/uL
same,HEMATOCRIT,[1],32.43%
same,HEMOGLOBIN,[1],12.98 G/DL
same,LEUKOCYTE COUNT,[1],11.48 x10E3/uL
same,LYMPHOCYTE,[1],92.33%
same,MEAN CORPUSCULAR HEMOGLOBIN,[1],25.23 pg
same,MEAN CORPUSCULAR HEMOGLOBIN CONCENTRATION,[1],40.08 G/DL
same,MONOCYTE,[1],0.67%
same,NEUTROPHIL,[1],7%
same,NUCLEATED RED BLOOD CELLS,[1],0 /100WBC
same,PLATELET COUNT,[1],1016.67 x10E3/uL
same,ALANINE AMINOTRANSFERASE,[1],62.17 u/L
same,ALBUMIN,[1],3.95 G/DL
same,ALKALINE PHOSPHATASE,[1],363.5 u/L
same,ASPARTATE AMINOTRANSFERASE,[1],118 u/L
same,BLOOD UREA NITROGEN,[1],14.5 mg/dL
same,CARBON DIOXIDE,[1],22.83 mmol/L
same,CHLORIDE,[1],100.67 MEQ/L
same,CHOLESTEROL,[1],66 mg/dL
same,CREATINE PHOSPHOKINASE,[1],1308.83 u/L
same,CREATININE,[1],0.22 mg/dL
same,GLUCOSE,[1],187.5 mg/dL
same,LACTATE DEHYDROGENASE,[1],380.17 u/L
same,LIPASE,[1],16.17 u/L
same,PHOSPHORUS,[1],14.27 mg/dL
same,POTASSIUM,[1],6.8 MEQ/L
same,SODIUM,[1],142.53 MEQ/L
same,TOTAL BILIRUBIN,[1],0.2 mg/dL
same,TOTAL PROTEIN,[1],5.68 G/DL
same,URIC ACID,[1],2.87 mg/dL
same,ABSOLUTE BASOPHIL,[2],0 CELLS/uL
same,ABSOLUTE EOSINOPHIL,[2],80 CELLS/uL
same,ABSOLUTE LYMPHOCYTE,[2],13301.33 CELLS/uL
same,ABSOLUTE MONOCYTE,[2],180.83 CELLS/uL
same,ABSOLUTE SEGMENTED NEUTROPHIL,[2],1187.83 CELLS/uL
same,BASOPHIL,[2],0%
same,EOSINOPHIL,[2],0.5%
same,ERYTHROCYTE COUNT,[2],5.54 x10E6/uL
same,HEMATOCRIT,[2],35.65%
same,HEMOGLOBIN,[2],14.22 G/DL
same,LEUKOCYTE COUNT,[2],14.75 x10E3/uL
same,LYMPHOCYTE,[2],90.67%
same,MEAN CORPUSCULAR HEMOGLOBIN,[2],25.65 pg
same,MEAN CORPUSCULAR HEMOGLOBIN CONCENTRATION,[2],39.88 G/DL
same,MONOCYTE,[2],1%
same,NEUTROPHIL,[2],7.83%
same,NUCLEATED RED BLOOD CELLS,[2],0.17 /100WBC
same,PLATELET COUNT,[2],1285.33 x10E3/uL
same,ALANINE AMINOTRANSFERASE,[2],51.67 u/L
same,ALBUMIN,[2],4.08 G/DL
same,ALKALINE PHOSPHATASE,[2],391.5 u/L
same,ASPARTATE AMINOTRANSFERASE,[2],99.5 u/L
same,BLOOD UREA NITROGEN,[2],15.5 mg/dL
same,CARBON DIOXIDE,[2],28.33 mmol/L
same,CHLORIDE,[2],101.83 MEQ/L
same,CHOLESTEROL,[2],67.83 mg/dL
same,CREATINE PHOSPHOKINASE,[2],771.33 u/L
same,CREATININE,[2],0.23 mg/dL
same,GLUCOSE,[2],156.5 mg/dL
same,LACTATE DEHYDROGENASE,[2],544.33 u/L
same,LIPASE,[2],10.17 u/L
same,PHOSPHORUS,[2],12.03 mg/dL
same,POTASSIUM,[2],6.81 MEQ/L
same,SODIUM,[2],144.13 MEQ/L
same,TOTAL BILIRUBIN,[2],0.22 mg/dL
same,TOTAL PROTEIN,[2],6 G/DL
same,URIC ACID,[2],2.18 mg/dL
same,ABSOLUTE BASOPHIL,[3],0 CELLS/uL
same,ABSOLUTE EOSINOPHIL,[3],0 CELLS/uL
same,ABSOLUTE LYMPHOCYTE,[3],12527.33 CELLS/uL
same,ABSOLUTE MONOCYTE,[3],193.67 CELLS/uL
same,ABSOLUTE SEGMENTED NEUTROPHIL,[3],645.67 CELLS/uL
same,BASOPHIL,[3],0%
same,EOSINOPHIL,[3],0%
same,ERYTHROCYTE COUNT,[3],5.11 x10E6/uL
same,HEMATOCRIT,[3],32.47%
same,HEMOGLOBIN,[3],12.77 G/DL
same,LEUKOCYTE COUNT,[3],13.37 x10E3/uL
same,LYMPHOCYTE,[3],93.67%
same,MEAN CORPUSCULAR HEMOGLOBIN,[3],25 pg
same,MEAN CORPUSCULAR HEMOGLOBIN CONCENTRATION,[3],39.33 G/DL
same,MONOCYTE,[3],1.33%
same,NEUTROPHIL,[3],5%
same,NUCLEATED RED BLOOD CELLS,[3],0 /100WBC
same,PLATELET COUNT,[3],1185.33 x10E3/uL
same,ALANINE AMINOTRANSFERASE,[3],55.33 u/L
same,ALBUMIN,[3],4.23 G/DL
same,ALKALINE PHOSPHATASE,[3],396.33 u/L
same,ASPARTATE AMINOTRANSFERASE,[3],89.33 u/L
same,BLOOD UREA NITROGEN,[3],15.33 mg/dL
same,CARBON DIOXIDE,[3],24.67 mmol/L
same,CHLORIDE,[3],99.67 MEQ/L
same,CHOLESTEROL,[3],77.67 mg/dL
same,CREATINE PHOSPHOKINASE,[3],344.67 u/L
same,CREATININE,[3],0.22 mg/dL
same,GLUCOSE,[3],154.67 mg/dL
same,LACTATE DEHYDROGENASE,[3],230.67 u/L
same,LIPASE,[3],11.67 u/L
same,PHOSPHORUS,[3],12.57 mg/dL
same,POTASSIUM,[3],6.98 MEQ/L
same,SODIUM,[3],141.83 MEQ/L
same,TOTAL BILIRUBIN,[3],0.2 mg/dL
same,TOTAL PROTEIN,[3],5.87 G/DL
